Data reported in ChEMBL document CHEMBL4308841, “Synthesis, in vitro antiproliferative activity, and kinase inhibitory effects of pyrazole-containing diarylureas and diarylamides” (Eur J Med Chem, 2018).

system: MDA-MB-435; assay: Growth inhibition of human MDA-MB-435 cells incubated for 48 hrs by sulforhodamine B assay; assay type: functional, cell-based; conditions: MDA-MB-435, 48 h, read-out: TGI

| SMILES | TGI |
| --- | --- |
| COc1cc(Cl)cc(-c2nn(-c3cccc(NC(=O)Nc4cc(C(F)(F)F)cc(C(F)(F)F)c4)c3)cc2-c2ccncc2)c1 | 2.03 µM |

same assay, conditions: MDA-MB-435, 48 h, read-out: pGI50 (converted)

| SMILES | GI50 |
| --- | --- |
| COc1cc(Cl)cc(-c2nn(-c3cccc(NC(=O)Nc4cc(C(F)(F)F)cc(C(F)(F)F)c4)c3)cc2-c2ccncc2)c1 | 0.427 µM |

same assay, conditions: MDA-MB-435, 48 h, read-out: pLC50 (converted)

| SMILES | LC50 |
| --- | --- |
| COc1cc(Cl)cc(-c2nn(-c3cccc(NC(=O)Nc4cc(C(F)(F)F)cc(C(F)(F)F)c4)c3)cc2-c2ccncc2)c1 | 11.7 µM |

same assay, conditions: MDA-MB-435, 48 h, read-out: pTGI (converted)

| SMILES | TGI |
| --- | --- |
| COc1cc(Cl)cc(-c2nn(-c3cccc(NC(=O)Nc4cc(C(F)(F)F)cc(C(F)(F)F)c4)c3)cc2-c2ccncc2)c1 | 2.04 µM |

system: UO-31; assay: Growth inhibition of human UO31 cells assessed as cell growth at 1 uM incubated for 48 hrs by sulforhodamine B assay relative to control; assay type: functional; conditions: UO-31, 48 h, read-out: Activity

| SMILES | growth at 1 µM |
| --- | --- |
| COc1cc(Cl)cc(-c2nn(-c3cccc(NC(=O)Nc4cc(C(F)(F)F)cc(C(F)(F)F)c4)c3)cc2-c2ccncc2)c1 | 15% |

system: SW-620; assay: Growth inhibition of human SW620 cells assessed as cell growth at 0.1 uM incubated for 48 hrs by sulforhodamine B assay relative to control; assay type: functional; conditions: SW-620, 48 h, read-out: Activity

| SMILES | growth at 0.1 µM |
| --- | --- |
| COc1cc(Cl)cc(-c2nn(-c3cccc(NC(=O)Nc4cc(C(F)(F)F)cc(C(F)(F)F)c4)c3)cc2-c2ccncc2)c1 | 94% |

system: K562; assay: Growth inhibition of human K562 cells assessed as cell growth at 100 uM incubated for 48 hrs by sulforhodamine B assay relative to control; assay type: functional; conditions: K562, 48 h, read-out: Activity

| SMILES | growth at 100 µM |
| --- | --- |
| COc1cc(Cl)cc(-c2nn(-c3cccc(NC(=O)Nc4cc(C(F)(F)F)cc(C(F)(F)F)c4)c3)cc2-c2ccncc2)c1 | -42% |

system: SK-OV-3; assay: Growth inhibition of human SKOV3 cells incubated for 48 hrs by sulforhodamine B assay; assay type: functional, cell-based; conditions: SK-OV-3, 48 h

| SMILES | IC50 |
| --- | --- |
| COc1cc(Cl)cc(-c2nn(-c3cccc(NC(=O)Nc4cc(C(F)(F)F)cc(C(F)(F)F)c4)c3)cc2-c2ccncc2)c1 | 0.77 µM |

same assay, conditions: SK-OV-3, 48 h, read-out: GI50

| SMILES | GI50 |
| --- | --- |
| COc1cc(Cl)cc(-c2nn(-c3cccc(NC(=O)Nc4cc(C(F)(F)F)cc(C(F)(F)F)c4)c3)cc2-c2ccncc2)c1 | 0.77 µM |

same assay, conditions: SK-OV-3, 48 h, read-out: LC50 (the source's name)

| SMILES | CC50 |
| --- | --- |
| COc1cc(Cl)cc(-c2nn(-c3cccc(NC(=O)Nc4cc(C(F)(F)F)cc(C(F)(F)F)c4)c3)cc2-c2ccncc2)c1 | 0.0412 µM |

same assay, conditions: SK-OV-3, 48 h, read-out: TGI

| SMILES | TGI |
| --- | --- |
| COc1cc(Cl)cc(-c2nn(-c3cccc(NC(=O)Nc4cc(C(F)(F)F)cc(C(F)(F)F)c4)c3)cc2-c2ccncc2)c1 | 5.75 µM |

same assay, conditions: SK-OV-3, 48 h, read-out: pGI50 (converted)

| SMILES | GI50 |
| --- | --- |
| COc1cc(Cl)cc(-c2nn(-c3cccc(NC(=O)Nc4cc(C(F)(F)F)cc(C(F)(F)F)c4)c3)cc2-c2ccncc2)c1 | 0.776 µM |

same assay, conditions: SK-OV-3, 48 h, read-out: pLC50 (the source's name) (converted)

| SMILES | CC50 |
| --- | --- |
| COc1cc(Cl)cc(-c2nn(-c3cccc(NC(=O)Nc4cc(C(F)(F)F)cc(C(F)(F)F)c4)c3)cc2-c2ccncc2)c1 | 41.7 µM |

same assay, conditions: SK-OV-3, 48 h, read-out: pTGI (converted)

| SMILES | TGI |
| --- | --- |
| COc1cc(Cl)cc(-c2nn(-c3cccc(NC(=O)Nc4cc(C(F)(F)F)cc(C(F)(F)F)c4)c3)cc2-c2ccncc2)c1 | 5.75 µM |

system: RPMI-8226; assay: Growth inhibition of human RPMI8226 cells assessed as cell growth at 0.01 uM incubated for 48 hrs by sulforhodamine B assay relative to control; assay type: functional; conditions: RPMI-8226, 48 h, read-out: Activity

| SMILES | growth at 0.01 µM |
| --- | --- |
| COc1cc(Cl)cc(-c2nn(-c3cccc(NC(=O)Nc4cc(C(F)(F)F)cc(C(F)(F)F)c4)c3)cc2-c2ccncc2)c1 | 93% |

system: NCI/ADR-RES; assay: Growth inhibition of human NCI/ADR-RES cells assessed as cell growth at 100 uM incubated for 48 hrs by sulforhodamine B assay relative to control; assay type: functional; conditions: read-out: Activity

| SMILES | growth at 100 µM |
| --- | --- |
| COc1cc(Cl)cc(-c2nn(-c3cccc(NC(=O)Nc4cc(C(F)(F)F)cc(C(F)(F)F)c4)c3)cc2-c2ccncc2)c1 | -12% |

system: A549; assay: Growth inhibition of human A549/ATCC cells assessed as cell growth at 1 uM incubated for 48 hrs by sulforhodamine B assay relative to control; assay type: functional; conditions: A549, 48 h, read-out: Activity

| SMILES | growth at 1 µM |
| --- | --- |
| COc1cc(Cl)cc(-c2nn(-c3cccc(NC(=O)Nc4cc(C(F)(F)F)cc(C(F)(F)F)c4)c3)cc2-c2ccncc2)c1 | 15% |

system: MCF7; assay: Growth inhibition of human MCF7 cells assessed as cell growth at 100 uM incubated for 48 hrs by sulforhodamine B assay relative to control; assay type: functional; conditions: MCF7, 48 h, read-out: Activity

| SMILES | growth at 100 µM |
| --- | --- |
| COc1cc(Cl)cc(-c2nn(-c3cccc(NC(=O)Nc4cc(C(F)(F)F)cc(C(F)(F)F)c4)c3)cc2-c2ccncc2)c1 | -44% |

system: A498; assay: Growth inhibition of human A498 cells assessed as cell growth at 0.1 uM incubated for 48 hrs by sulforhodamine B assay relative to control; assay type: functional; conditions: A498, 48 h, read-out: Activity

| SMILES | growth at 0.1 µM |
| --- | --- |
| COc1cc(Cl)cc(-c2nn(-c3cccc(NC(=O)Nc4cc(C(F)(F)F)cc(C(F)(F)F)c4)c3)cc2-c2ccncc2)c1 | 69% |

system: A498; assay: Growth inhibition of human A498 cells assessed as cell growth at 100 uM incubated for 48 hrs by sulforhodamine B assay relative to control; assay type: functional; conditions: A498, 48 h, read-out: Activity

| SMILES | growth at 100 µM |
| --- | --- |
| COc1cc(Cl)cc(-c2nn(-c3cccc(NC(=O)Nc4cc(C(F)(F)F)cc(C(F)(F)F)c4)c3)cc2-c2ccncc2)c1 | -59% |

system: NCI/ADR-RES; assay: Growth inhibition of human NCI/ADR-RES cells assessed as cell growth at 0.01 uM incubated for 48 hrs by sulforhodamine B assay relative to control; assay type: functional; conditions: read-out: Activity

| SMILES | growth at 0.01 µM |
| --- | --- |
| COc1cc(Cl)cc(-c2nn(-c3cccc(NC(=O)Nc4cc(C(F)(F)F)cc(C(F)(F)F)c4)c3)cc2-c2ccncc2)c1 | 99% |

system: SK-MEL-28; assay: Growth inhibition of human SK-MEL-28 cells assessed as cell growth at 1 uM incubated for 48 hrs by sulforhodamine B assay relative to control; assay type: functional; conditions: SK-MEL-28, 48 h, read-out: Activity

| SMILES | growth at 1 µM |
| --- | --- |
| COc1cc(Cl)cc(-c2nn(-c3cccc(NC(=O)Nc4cc(C(F)(F)F)cc(C(F)(F)F)c4)c3)cc2-c2ccncc2)c1 | 46% |

system: PC-3; assay: Growth inhibition of human PC3 cells assessed as cell growth at 1 uM incubated for 48 hrs by sulforhodamine B assay relative to control; assay type: functional; conditions: PC-3, 48 h, read-out: Activity

| SMILES | growth at 1 µM |
| --- | --- |
| COc1cc(Cl)cc(-c2nn(-c3cccc(NC(=O)Nc4cc(C(F)(F)F)cc(C(F)(F)F)c4)c3)cc2-c2ccncc2)c1 | 5% |

system: SW-620; assay: Growth inhibition of human SW620 cells assessed as cell growth at 0.01 uM incubated for 48 hrs by sulforhodamine B assay relative to control; assay type: functional; conditions: SW-620, 48 h, read-out: Activity

| SMILES | growth at 0.01 µM |
| --- | --- |
| COc1cc(Cl)cc(-c2nn(-c3cccc(NC(=O)Nc4cc(C(F)(F)F)cc(C(F)(F)F)c4)c3)cc2-c2ccncc2)c1 | 98% |
